One experiment has as its target Ba/F3 EGFR-Del19/T790M (Homo sapiens, UniProt P00533, T790M, cells depend on it, form not given). As to the kind of experiment: Ba/F3 viability assay (CellTiter-Glo), DT. The format is cell-based. The settings on record: anti-proliferation, read-out: BaF3 DT IC50. Summed up: (§1)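 Proliferation inhibition, viability-based; mutant EGFR lines plus parental control.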
Background: ATP-based viability assays read luminescence as a measure of living cells.

The next experiment relates to Ba/F3 Parental. As to the kind of experiment: Ba/F3 viability assay (CellTiter-Glo), parental. It counts as cell-based. Summed up: as §1
The next experiment concerns the target Ba/F3 EGFR-Del19/C797S (Homo sapiens, UniProt P00533, C797S, cells depend on it, form not given). As to the kind of experiment: Ba/F3 viability assay (CellTiter-Glo), DC. The format is cell-based. To be noted: anti-proliferation, read-out: BaF3 DC IC50. Summed up:
as §1

The next experiment concerns the target EGFR^L58R/T790M (Homo sapiens, UniProt P00533, L858R/T790M). As to the kind of experiment: in vitro kinase assay (HTRF KinEASE-TK kit), LT. It counts as biochemical. To be noted: kinase inhibition. An excerpt: (§2) Assays using an in vitro kinase assay kit (HTRF KinEASE-TK kit) can be used to study the inhibitory activity of compounds described herein with respect to EGFR mutants such as EGFR^L858R, EGFR^L58R/T790M, and EGFR^L858R/T790M/C^797S.
(In general: In TR-FRET formats the signal depends on donor and acceptor labels being close together.)

The next experiment concerns the target EGFR^L858R (Homo sapiens, UniProt P00533, L858R). As to the kind of experiment: in vitro kinase assay (HTRF KinEASE-TK kit), L. It counts as biochemical. To be noted: kinase inhibition.
From the text: as §2

The target in a further experiment is EGFR^L858R/T790M/C^797S (Homo sapiens, UniProt P00533, C797S/L858R/T790M). As to the kind of experiment: in vitro kinase assay (HTRF KinEASE-TK kit), LTC. The format is biochemical. To be noted: kinase inhibition.
Chain of EGFR^L858R/T790M/C^797S (P00533 25-1210 T790M/C797S/L858R): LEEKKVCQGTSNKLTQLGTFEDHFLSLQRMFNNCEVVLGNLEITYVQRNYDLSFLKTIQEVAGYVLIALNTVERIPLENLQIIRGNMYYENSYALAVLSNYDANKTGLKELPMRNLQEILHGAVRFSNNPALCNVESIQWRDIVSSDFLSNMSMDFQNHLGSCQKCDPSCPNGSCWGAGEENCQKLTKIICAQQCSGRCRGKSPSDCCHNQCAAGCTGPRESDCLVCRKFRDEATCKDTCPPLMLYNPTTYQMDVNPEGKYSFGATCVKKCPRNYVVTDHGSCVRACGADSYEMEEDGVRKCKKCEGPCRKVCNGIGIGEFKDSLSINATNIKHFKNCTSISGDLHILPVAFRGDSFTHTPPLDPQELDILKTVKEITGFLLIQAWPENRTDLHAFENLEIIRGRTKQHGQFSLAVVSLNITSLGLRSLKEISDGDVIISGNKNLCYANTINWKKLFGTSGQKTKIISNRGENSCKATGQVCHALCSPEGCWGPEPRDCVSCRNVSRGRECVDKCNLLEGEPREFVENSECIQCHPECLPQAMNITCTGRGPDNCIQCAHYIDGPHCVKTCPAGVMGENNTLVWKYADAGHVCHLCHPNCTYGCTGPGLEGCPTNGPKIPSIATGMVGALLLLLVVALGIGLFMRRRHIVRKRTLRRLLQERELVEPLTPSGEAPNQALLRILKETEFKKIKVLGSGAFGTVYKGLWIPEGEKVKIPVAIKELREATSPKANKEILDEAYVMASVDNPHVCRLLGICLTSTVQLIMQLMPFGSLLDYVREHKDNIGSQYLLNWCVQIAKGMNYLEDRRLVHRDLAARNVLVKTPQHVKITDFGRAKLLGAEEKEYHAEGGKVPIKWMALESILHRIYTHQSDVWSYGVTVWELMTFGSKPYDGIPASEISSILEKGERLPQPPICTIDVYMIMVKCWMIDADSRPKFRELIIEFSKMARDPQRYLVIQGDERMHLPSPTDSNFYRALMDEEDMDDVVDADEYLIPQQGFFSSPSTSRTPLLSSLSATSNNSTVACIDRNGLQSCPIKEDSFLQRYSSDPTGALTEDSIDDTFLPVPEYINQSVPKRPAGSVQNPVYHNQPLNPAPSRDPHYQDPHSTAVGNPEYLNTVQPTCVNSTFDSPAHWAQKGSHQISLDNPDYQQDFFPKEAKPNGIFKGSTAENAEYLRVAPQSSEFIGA
From the text: as §2

The target of experiment [1] is Ba/F3 EGFR-Del19/T790M/C797S (Homo sapiens, UniProt P00533, T790M/C797S, cells depend on it, form not given). As to the kind of experiment: Ba/F3 viability assay (CellTiter-Glo), DTC. To be noted: anti-proliferation, read-out: BaF3 DTC IC50. The format is cell-based. Summed up:
as §1

The mark [2] stands for this setting: anti-proliferation, read-out: BaF3 parental IC50.
The mark [3] stands for this setting: Mus musculus, BaF3, anti-proliferation.

Read-outs that look alike come from different tables or passages of the source.

For orientation: IC50 means the point on the concentration scale where inhibition reaches its midpoint.

Chain of EGFR^L58R/T790M (P00533 25-1210 T790M/L858R): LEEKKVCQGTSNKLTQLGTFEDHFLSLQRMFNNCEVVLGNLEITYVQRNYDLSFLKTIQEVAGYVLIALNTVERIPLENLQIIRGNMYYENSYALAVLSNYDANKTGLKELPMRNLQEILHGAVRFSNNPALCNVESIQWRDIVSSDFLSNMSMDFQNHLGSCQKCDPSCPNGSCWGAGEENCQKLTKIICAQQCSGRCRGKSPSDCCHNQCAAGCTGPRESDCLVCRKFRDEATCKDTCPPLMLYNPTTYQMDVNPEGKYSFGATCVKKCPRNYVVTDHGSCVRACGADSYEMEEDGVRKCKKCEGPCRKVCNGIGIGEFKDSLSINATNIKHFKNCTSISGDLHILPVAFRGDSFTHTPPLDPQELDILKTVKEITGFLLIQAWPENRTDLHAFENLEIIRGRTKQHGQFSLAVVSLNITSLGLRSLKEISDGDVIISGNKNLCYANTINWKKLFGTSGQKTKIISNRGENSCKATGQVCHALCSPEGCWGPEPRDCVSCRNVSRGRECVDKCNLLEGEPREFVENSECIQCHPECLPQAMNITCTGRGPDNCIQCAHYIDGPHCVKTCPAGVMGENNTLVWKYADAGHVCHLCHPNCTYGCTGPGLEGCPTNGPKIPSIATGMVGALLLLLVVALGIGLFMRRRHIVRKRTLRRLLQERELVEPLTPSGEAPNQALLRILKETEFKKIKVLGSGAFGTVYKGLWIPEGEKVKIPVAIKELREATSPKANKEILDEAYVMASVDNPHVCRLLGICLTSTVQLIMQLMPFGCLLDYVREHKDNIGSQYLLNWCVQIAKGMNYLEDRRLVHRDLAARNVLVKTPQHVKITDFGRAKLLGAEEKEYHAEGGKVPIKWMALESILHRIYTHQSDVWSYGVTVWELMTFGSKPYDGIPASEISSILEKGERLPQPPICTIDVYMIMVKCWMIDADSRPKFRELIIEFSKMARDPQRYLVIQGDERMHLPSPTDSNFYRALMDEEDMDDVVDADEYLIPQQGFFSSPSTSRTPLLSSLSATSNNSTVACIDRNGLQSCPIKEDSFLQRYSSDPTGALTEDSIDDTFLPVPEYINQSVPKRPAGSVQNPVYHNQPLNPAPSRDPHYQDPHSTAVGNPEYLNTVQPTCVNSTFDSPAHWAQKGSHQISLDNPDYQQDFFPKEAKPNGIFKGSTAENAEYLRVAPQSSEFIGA
Chain of EGFR^L858R (P00533 25-1210 L858R): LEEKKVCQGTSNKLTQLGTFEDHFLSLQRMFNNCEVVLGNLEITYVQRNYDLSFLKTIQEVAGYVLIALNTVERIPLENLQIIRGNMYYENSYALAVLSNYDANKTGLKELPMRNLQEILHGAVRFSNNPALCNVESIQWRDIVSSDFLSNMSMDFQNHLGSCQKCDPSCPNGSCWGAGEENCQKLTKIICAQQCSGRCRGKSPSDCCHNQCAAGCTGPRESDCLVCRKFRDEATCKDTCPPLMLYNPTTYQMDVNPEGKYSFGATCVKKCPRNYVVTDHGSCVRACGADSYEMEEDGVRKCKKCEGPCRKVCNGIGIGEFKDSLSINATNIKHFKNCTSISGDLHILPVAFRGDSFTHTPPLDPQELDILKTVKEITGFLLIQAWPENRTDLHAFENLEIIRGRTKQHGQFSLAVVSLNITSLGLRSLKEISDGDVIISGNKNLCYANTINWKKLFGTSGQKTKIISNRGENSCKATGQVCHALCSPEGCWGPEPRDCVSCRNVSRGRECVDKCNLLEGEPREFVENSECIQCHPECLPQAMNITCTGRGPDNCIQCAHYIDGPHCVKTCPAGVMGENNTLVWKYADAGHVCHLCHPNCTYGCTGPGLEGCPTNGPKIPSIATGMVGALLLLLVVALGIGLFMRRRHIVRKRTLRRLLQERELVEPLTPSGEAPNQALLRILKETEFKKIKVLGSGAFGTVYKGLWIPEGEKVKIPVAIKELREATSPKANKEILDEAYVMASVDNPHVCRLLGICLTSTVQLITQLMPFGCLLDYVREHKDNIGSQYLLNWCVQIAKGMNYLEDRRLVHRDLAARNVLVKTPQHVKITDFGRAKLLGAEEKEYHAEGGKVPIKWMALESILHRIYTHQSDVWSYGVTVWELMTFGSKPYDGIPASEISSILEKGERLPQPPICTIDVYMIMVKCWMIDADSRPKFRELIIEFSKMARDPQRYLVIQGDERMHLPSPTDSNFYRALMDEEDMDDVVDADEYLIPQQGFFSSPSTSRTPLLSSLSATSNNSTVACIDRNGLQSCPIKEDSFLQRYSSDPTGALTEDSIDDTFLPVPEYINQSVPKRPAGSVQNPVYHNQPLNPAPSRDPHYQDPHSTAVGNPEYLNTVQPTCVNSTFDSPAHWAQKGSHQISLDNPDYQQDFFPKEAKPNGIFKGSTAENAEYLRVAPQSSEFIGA
Chain of Ba/F3 EGFR-Del19/T790M/C797S (P00533 with tags, fused parts or gaps DEL746-750/T790M/C797S, form open): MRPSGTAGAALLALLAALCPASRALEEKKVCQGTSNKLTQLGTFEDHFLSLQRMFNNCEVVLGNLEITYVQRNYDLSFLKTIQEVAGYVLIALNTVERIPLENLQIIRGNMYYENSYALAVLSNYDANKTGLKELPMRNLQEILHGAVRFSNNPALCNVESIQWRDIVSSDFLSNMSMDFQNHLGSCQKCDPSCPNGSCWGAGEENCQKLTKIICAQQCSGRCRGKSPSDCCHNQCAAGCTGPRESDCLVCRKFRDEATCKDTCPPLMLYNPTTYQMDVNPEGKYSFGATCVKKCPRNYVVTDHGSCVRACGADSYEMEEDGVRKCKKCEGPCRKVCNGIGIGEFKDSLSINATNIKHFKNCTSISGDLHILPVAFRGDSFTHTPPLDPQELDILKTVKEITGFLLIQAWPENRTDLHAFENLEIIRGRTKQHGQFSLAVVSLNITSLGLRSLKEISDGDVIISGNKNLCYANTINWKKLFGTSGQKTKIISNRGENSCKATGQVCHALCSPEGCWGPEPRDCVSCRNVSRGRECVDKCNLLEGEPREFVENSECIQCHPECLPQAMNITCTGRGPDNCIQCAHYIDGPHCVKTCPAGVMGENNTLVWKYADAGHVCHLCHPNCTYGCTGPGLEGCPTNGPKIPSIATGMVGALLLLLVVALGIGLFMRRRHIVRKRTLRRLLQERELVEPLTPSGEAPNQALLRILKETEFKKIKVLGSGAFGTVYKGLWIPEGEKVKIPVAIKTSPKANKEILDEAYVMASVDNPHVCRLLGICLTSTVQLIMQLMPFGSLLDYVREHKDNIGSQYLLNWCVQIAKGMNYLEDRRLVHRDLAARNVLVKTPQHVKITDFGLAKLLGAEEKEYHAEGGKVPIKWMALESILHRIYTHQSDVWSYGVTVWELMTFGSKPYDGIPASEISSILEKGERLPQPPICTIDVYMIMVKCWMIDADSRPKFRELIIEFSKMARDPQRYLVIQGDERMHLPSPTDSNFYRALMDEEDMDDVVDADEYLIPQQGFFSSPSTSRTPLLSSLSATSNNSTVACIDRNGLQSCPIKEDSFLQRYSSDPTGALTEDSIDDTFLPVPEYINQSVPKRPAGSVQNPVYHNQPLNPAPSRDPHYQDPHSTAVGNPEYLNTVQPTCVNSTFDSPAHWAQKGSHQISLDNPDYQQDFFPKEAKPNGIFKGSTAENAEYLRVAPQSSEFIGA

Regarding `C[C@H]1CCOc2c(cnn2C)-c2nccc(n2)Nc2cc3c(cn2)c(N2CCC2)nn31` [(70)], the results for the GI50 (on Ba/F3 EGFR-Del19/T790M; at Ba/F3 EGFR-Del19/C797S; in experiment [1]) were < 10 nM, 10 to 100 nM and 10 to 100 nM, respectively. The IC50 in the experiment on Ba/F3 Parental (setting [2]) is 100 to 1000 nM; at EGFR^L58R/T790M, < 10 nM; at EGFR^L858R, < 10 nM; against EGFR^L858R/T790M/C^797S, < 10 nM.

As for `CC1CCCOc2c(cnn2C)-c2nccc(n2)Nc2cc3c(cn2)c(N2CCCC2)nn31` (centres unmarked) [(71)], the GI50 (on Ba/F3 EGFR-Del19/T790M; at Ba/F3 EGFR-Del19/C797S; in experiment [1]) was 10 to 100 nM in each case. The IC50 is 100 to 1000 nM in the experiment with Ba/F3 Parental (setting [3]), < 10 nM against EGFR^L58R/T790M, < 10 nM on EGFR^L858R and < 10 nM against EGFR^L858R/T790M/C^797S.

For `CN1CCN(CC2CCN(c3nn4c5cc(ncc35)Nc3ccnc(n3)-c3cnn(C)c3OCCC4)C2)CC1` (centres unmarked) [(57)], the GI50 (at Ba/F3 EGFR-Del19/T790M; at Ba/F3 EGFR-Del19/C797S; in experiment [1]) was 10 to 100 nM throughout. Also, the IC50 was 100 to 1000 nM in the experiment on Ba/F3 Parental (setting [3]), < 10 nM on EGFR^L58R/T790M, 10 to 100 nM against EGFR^L858R and < 10 nM against EGFR^L858R/T790M/C^797S.

With `C[C@H]1CCOc2c(cnn2C)-c2nccc(n2)Nc2cc3c(cn2)c(-c2ccc(CN4CCN(CCCF)CC4)n2C)nn31` [(190)], the GI50 (on Ba/F3 EGFR-Del19/T790M; on Ba/F3 EGFR-Del19/C797S; in experiment [1]) was < 10 nM throughout. The IC50 is 100 to 1000 nM in the experiment on Ba/F3 Parental (setting [3]), < 10 nM on EGFR^L58R/T790M, < 10 nM on EGFR^L858R and < 10 nM against EGFR^L858R/T790M/C^797S.

For the compound `C[C@@H]1CCCOc2c(cnn2C)-c2nccc(n2)Nc2cc3c(cn2)c(N2CCC2)nn31` [(77)], the results for the GI50 (at Ba/F3 EGFR-Del19/T790M; on Ba/F3 EGFR-Del19/C797S; in experiment [1]) were ≥ 1000 nM, 100 to 1000 nM and 100 to 1000 nM, respectively. Moreover, the IC50 in the experiment with Ba/F3 Parental (setting [2]) is ≥ 1000 nM; on EGFR^L58R/T790M, 10 to 100 nM; at EGFR^L858R, ≥ 1000 nM; at EGFR^L858R/T790M/C^797S, 100 to 1000 nM.

`CC(C)N1CCN(Cc2csc(-c3nn4c5cc(ncc35)Nc3ccnc(n3)-c3cnn(C)c3OCC[C@@H]4C)n2)CC1` [(118)]: the GI50 at Ba/F3 EGFR-Del19/T790M lay within 100 to 1000 nM; on Ba/F3 EGFR-Del19/C797S, 100 to 1000 nM; in experiment [1], 10 to 100 nM. The IC50 in the experiment with Ba/F3 Parental (setting [3]) was ≥ 1000 nM; on EGFR^L58R/T790M, < 10 nM; against EGFR^L858R, 10 to 100 nM; against EGFR^L858R/T790M/C^797S it was < 10 nM.

Regarding `C[C@H]1CCOc2c(cnn2C)-c2nccc(n2)Nc2cc3c(cn2)c(-c2cccc(CCN4CCOCC4)c2)nn31` [(163)], the GI50 at Ba/F3 EGFR-Del19/T790M is 10 to 100 nM; on Ba/F3 EGFR-Del19/C797S, 10 to 100 nM; in experiment [1], < 10 nM. The IC50 in the experiment on Ba/F3 Parental (setting [3]) was 100 to 1000 nM; on EGFR^L58R/T790M, < 10 nM; at EGFR^L858R, < 10 nM; against EGFR^L858R/T790M/C^797S, < 10 nM.

Consider `C[C@H]1CCOc2c(cnn2C)-c2nccc(n2)Nc2cc3c(cn2)c(-c2ccc(CN(C)C)cc2)nn31` [(176)], for which the GI50 was < 10 nM at Ba/F3 EGFR-Del19/T790M, 10 to 100 nM at Ba/F3 EGFR-Del19/C797S and < 10 nM in experiment [1]. Besides, the IC50 is 100 to 1000 nM in the experiment on Ba/F3 Parental (setting [3]), < 10 nM against EGFR^L58R/T790M, < 10 nM at EGFR^L858R and < 10 nM at EGFR^L858R/T790M/C^797S.

Take `C[C@H]1CCOc2c(cnn2C)-c2nccc(n2)Nc2cc3c(cn2)c(-c2cccc(N4CCC(O)CC4)c2)nn31` [(111)]: the GI50 was < 10 nM on Ba/F3 EGFR-Del19/T790M, 10 to 100 nM at Ba/F3 EGFR-Del19/C797S and < 10 nM in experiment [1]. For the same compound, the IC50 is 100 to 1000 nM with Ba/F3 Parental (setting [3]), < 10 nM at EGFR^L58R/T790M, < 10 nM against EGFR^L858R and < 10 nM at EGFR^L858R/T790M/C^797S.

As for `Cc1cc(-c2nn3c4cc(ncc24)Nc2ccnc(n2)-c2cnn(C)c2OCC[C@@H]3C)oc1CN(C)C` [(168)], the GI50 (on Ba/F3 EGFR-Del19/T790M; on Ba/F3 EGFR-Del19/C797S; in experiment [1]) was < 10 nM each time. The IC50 is 100 to 1000 nM in the experiment on Ba/F3 Parental (setting [3]), < 10 nM against EGFR^L58R/T790M, < 10 nM on EGFR^L858R and < 10 nM against EGFR^L858R/T790M/C^797S.

Consider `C[C@H]1CCOc2c(cnn2C)-c2nccc(n2)Nc2cc3c(cn2)c(-c2ncc(CN(C)C)s2)nn31` [(157)], for which the GI50 on Ba/F3 EGFR-Del19/T790M is 10 to 100 nM; at Ba/F3 EGFR-Del19/C797S it was 10 to 100 nM; in experiment [1], < 10 nM. Moreover, the IC50 is 100 to 1000 nM with Ba/F3 Parental (setting [3]), < 10 nM against EGFR^L58R/T790M, < 10 nM on EGFR^L858R and < 10 nM at EGFR^L858R/T790M/C^797S.

In the case of `Cc1ccc(-c2nn3c4cc(ncc24)Nc2ccnc(n2)-c2cnn(C)c2OCC[C@@H]3C)n1C` [(150)], the GI50 (at Ba/F3 EGFR-Del19/T790M; at Ba/F3 EGFR-Del19/C797S; in experiment [1]) was 10 to 100 nM each time. Also, the IC50 is ≥ 1000 nM with Ba/F3 Parental (setting [3]), < 10 nM against EGFR^L58R/T790M, 10 to 100 nM against EGFR^L858R and < 10 nM against EGFR^L858R/T790M/C^797S.

For the compound `CCCN1CCN(Cc2cnc(-c3nn4c5cc(ncc35)Nc3ccnc(n3)-c3cnn(C)c3OCC[C@@H]4C)s2)CC1` [(142)], the GI50 at Ba/F3 EGFR-Del19/T790M was 10 to 100 nM; on Ba/F3 EGFR-Del19/C797S, 10 to 100 nM; in experiment [1], < 10 nM. Further, the IC50 was 100 to 1000 nM with Ba/F3 Parental (setting [3]), < 10 nM at EGFR^L58R/T790M, < 10 nM at EGFR^L858R and < 10 nM at EGFR^L858R/T790M/C^797S.

As to `C[C@H]1CCOc2c(cnn2C)-c2nccc(n2)Nc2cc3c(cn2)c(-c2cccc(CN4CCN(C)CC4)c2)nn31` [(98)], the GI50 (at Ba/F3 EGFR-Del19/T790M; on Ba/F3 EGFR-Del19/C797S; in experiment [1]) was 10 to 100 nM throughout. The IC50 with Ba/F3 Parental (setting [3]) was 100 to 1000 nM; against EGFR^L58R/T790M, < 10 nM; on EGFR^L858R it was < 10 nM; at EGFR^L858R/T790M/C^797S it was < 10 nM.

As for `C[C@H]1CCOc2c(cnn2C)-c2nccc(n2)Nc2cc3c(cn2)c(-c2csc(CN4CCN(C)CC4)n2)nn31` [(103)], the GI50 is < 10 nM at Ba/F3 EGFR-Del19/T790M, 10 to 100 nM at Ba/F3 EGFR-Del19/C797S and < 10 nM in experiment [1]. In addition, the IC50 with Ba/F3 Parental (setting [3]) was 100 to 1000 nM; against EGFR^L58R/T790M, < 10 nM; against EGFR^L858R it was < 10 nM; at EGFR^L858R/T790M/C^797S it was < 10 nM.

Consider `C[C@H]1CCCOc2c(cnn2C)-c2nccc(n2)Nc2cc3c(cn2)c(N2CCC2)nn31` [(78)], for which the GI50 (at Ba/F3 EGFR-Del19/T790M; on Ba/F3 EGFR-Del19/C797S; in experiment [1]) was 10 to 100 nM each time. The IC50 in the experiment on Ba/F3 Parental (setting [3]) is 100 to 1000 nM; against EGFR^L58R/T790M, < 10 nM; on EGFR^L858R, 10 to 100 nM; on EGFR^L858R/T790M/C^797S, < 10 nM.

For `C[C@H]1CCOc2c(cnn2C)-c2nccc(n2)Nc2cc3c(cn2)c(-c2cnc(CN4CCN(C)CC4)s2)nn31` [(106)], the GI50 on Ba/F3 EGFR-Del19/T790M was 10 to 100 nM; on Ba/F3 EGFR-Del19/C797S, < 10 nM; in experiment [1], 10 to 100 nM. Further, the IC50 was 100 to 1000 nM in the experiment on Ba/F3 Parental (setting [3]), < 10 nM against EGFR^L58R/T790M, < 10 nM against EGFR^L858R and < 10 nM against EGFR^L858R/T790M/C^797S.

(Values after patent US20230148005A1, “MACROCYCLIC COMPOUNDS AND USES THEREOF” (THESEUS PHARMACEUTICALS, INC., priority 2020, published 2023).)
